Laboratory results from patent US11434234B2, “Methods and agents for treating disease” (ANGION BIOMEDICA CORP., priority 2014, dated 2022).

Target: T1, human CYP11B2 (Homo sapiens, UniProt P19099)
T1 construct: expressed in transfected cells; host or cells: V79 Chinese hamster cells
T1 sequence (P19099 25-503): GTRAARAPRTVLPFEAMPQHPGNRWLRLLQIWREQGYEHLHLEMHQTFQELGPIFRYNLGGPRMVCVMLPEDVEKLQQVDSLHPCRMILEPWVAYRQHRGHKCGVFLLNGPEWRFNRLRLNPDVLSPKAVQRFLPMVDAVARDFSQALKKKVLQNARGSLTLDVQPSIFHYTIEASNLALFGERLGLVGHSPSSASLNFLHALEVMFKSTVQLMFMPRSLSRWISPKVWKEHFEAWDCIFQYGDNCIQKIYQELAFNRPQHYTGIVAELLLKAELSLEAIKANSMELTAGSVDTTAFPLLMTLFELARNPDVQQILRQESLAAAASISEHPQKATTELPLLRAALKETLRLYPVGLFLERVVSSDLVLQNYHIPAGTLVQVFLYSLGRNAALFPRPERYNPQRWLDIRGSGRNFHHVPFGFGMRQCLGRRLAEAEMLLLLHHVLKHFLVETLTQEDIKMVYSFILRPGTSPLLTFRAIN
Assay: Aldosterone inhibitory activity in V79 cells expressing human CYP11B2
Assay type: cell-based
Conditions: V79 Chinese hamster cells stably transfected with human CYP11B2; substrate 11-deoxycorticosterone 100 nM; read-out: IC50, inhibition of the production of aldosterone
Protocol: For the determination of aldosterone inhibitory activity, tests were carried out using V79 Chinese hamster cells stably transfected with human CYP11B2 or CYP11B1 and using assay protocols as described in Ehmer P B, Bureik M, Bernhardt R, Muller U, Hartmann R W. Development of a test system for inhibitors of human aldosterone synthase (CYP11B2): screening in fission yeast and evaluation of selectivity in V79 cells. J. Steroid Biochem. Mol. Biol. 2002 June; 81(2):173-9. The concentration of the substrate 11-deoxycorticosterone in the assay was 100 nM.

IC50 [nM] | SMILES
< 1000 | CCCC(O)(c1nc2cccc(Br)c2s1)c1cnccc1C(C)C (centres unmarked) [Example 38, 1-(7-bromobenzo[d]thiazol-2-yl)-1-(4-isopropylpyridin-3-yl)butan-1-ol]
< 1000 | CCCC(O)(c1nc2cccc(Br)c2s1)c1cnccc1OCC (centres unmarked) [Example 30, 1-(7-bromobenzo[d]thiazol-2-yl)-1-(4-ethoxypyridin-3-yl)butan-1-ol]
< 1000 | CCCOc1ccncc1C(O)(CCC)c1nc2ccc(OC(F)(F)F)c(Cl)c2s1 (centres unmarked) [Example 64, 1-(7-chloro-6-(trifluoromethoxy)benzo[d]thiazol-2-yl)-1-(4-propoxypyridin-3-yl)butan-1-ol]
< 1000 | CCCC(O)(c1nc2cc(Cl)c(OC(F)(F)F)cc2s1)c1cnccc1OCC (centres unmarked) [Example 58, 1-(5-chloro-6-(trifluoromethoxy)benzo[d]thiazol-2-yl)-1-(4-ethoxypyridin-3-yl)butan-1-ol]
< 1000 | CCCC(O)(c1nc2cc(F)c(OC(F)(F)F)cc2s1)c1cnccc1OCC (centres unmarked) [Example 62, 1-(4-ethoxypyridin-3-yl)-1-(5-fluoro-6-(trifluoromethoxy)benzo[d]thiazol-2-yl)butan-1-ol]
< 1000 | CCCC(O)(c1nc2cc(Cl)c(OCC(F)(F)F)cc2s1)c1cnccc1OCC (centres unmarked) [Example 69, 1-(5-chloro-6-(2,2,2-trifluoroethoxy)benzo[d]thiazol-2-yl)-1-(4-ethoxypyridin-3-yl)butan-1-ol]
< 1000 | CCCC(O)(c1nc2ccc(OC(F)(F)F)cc2s1)c1cnccc1OC(C)C (centres unmarked) [Example 49, 1-(4-isopropoxypyridin-3-yl)-1-(6-(trifluoromethoxy)benzo[d]thiazol-2-yl)butan-1-ol]
< 1000 | CCOc1ccncc1C(O)(c1nc2cccc(Br)c2s1)C(C)C (centres unmarked) [Example 1, 1-(7-bromobenzo[d]thiazol-2-yl)-1-(4-ethoxypyridin-3-yl)-2-methylpropan-1-ol]
< 1000 | CC(C)c1ccncc1C(O)(c1nc2ccc(Br)cc2s1)C(C)C (centres unmarked) [Example 33, 1-(6-bromobenzo[d]thiazol-2-yl)-1-(4-isopropylpyridin-3-yl)-2-methylpropan-1-ol]
< 1000 | CCOc1ccncc1C(O)(c1nc2ccc(Br)cc2s1)C(C)C (centres unmarked) [Example 32, 1-(6-bromobenzo[d]thiazol-2-yl)-1-(4-ethoxypyridin-3-yl)-2-methylpropan-1-ol]
< 1000 | CCCC(O)(c1nc2ccc(F)cc2s1)c1cnccc1OCC (centres unmarked) [Example 41, 1-(4-ethoxypyridin-3-yl)-1-(6-fluorobenzo[d]thiazol-2-yl)butan-1-ol]
< 1000 | CCCC(O)(c1nc2c(F)ccc(F)c2s1)c1cnccc1OCC (centres unmarked) [Example 43, 1-(4,7-difluorobenzo[d]thiazol-2-yl)-1-(4-ethoxypyridin-3-yl)butan-1-ol]
< 1000 | CC(C)Oc1ccncc1C(O)(c1nc2cccc(Br)c2s1)C(C)C (centres unmarked) [Example 36, 1-(7-bromobenzo[d]thiazol-2-yl)-1-(4-isopropoxypyridin-3-yl)-2-methylpropan-1-ol]
< 1000 | CCCOc1ccncc1C(O)(CCC)c1nc2cc(Cl)c(OC(F)(F)F)cc2s1 (centres unmarked) [Example 63, 1-(5-chloro-6-(trifluoromethoxy)benzo[d]thiazol-2-yl)-1-(4-propoxypyridin-3-yl)butan-1-ol]
< 1000 | CCCC(O)(c1nc2ccc(C#N)cc2s1)c1cnccc1OCC (centres unmarked) [Example 72, 1-(6-cyanobenzo[d]thiazol-2-yl)-1-(4-ethoxypyridin-3-yl)butan-1-ol]
< 1000 | CC(C)Oc1ccncc1C(O)(c1nc2ccc(Br)cc2s1)C(C)C (centres unmarked) [Example 35, 1-(6-bromobenzo[d]thiazol-2-yl)-1-(4-isopropoxypyridin-3-yl)-2-methylpropan-1-ol]

IC50 [nM] | SMILES
< 1000 | CCCC(O)(c1nc2cccc(Cl)c2s1)c1cnccc1OCC (centres unmarked) [Example 42, 1-(7-chlorobenzo[d]thiazol-2-yl)-1-(4-ethoxypyridin-3-yl)butan-1-ol]
< 1000 | CCCC(O)(c1nc2ccc(OC(F)(F)F)c(Br)c2s1)c1cnccc1OCC (centres unmarked) [Example 57, 1-(7-bromo-6-(trifluoromethoxy)benzo[d]thiazol-2-yl)-1-(4-ethoxypyridin-3-yl)butan-1-ol]
< 1000 | CCCC(O)(c1nc2ccc(OC)cc2s1)c1cnccc1OCC (centres unmarked) [Example 48, 1-(4-ethoxypyridin-3-yl)-1-(6-methoxybenzo[d]thiazol-2-yl)butan-1-ol]
< 1000 | CCCC(O)(c1nc2ccc(Oc3ccc(OC(F)(F)F)cc3)cc2s1)c1cnccc1OCC (centres unmarked) [Example 54, 1-(4-ethoxypyridin-3-yl)-1-(6-(4-(trifluoromethoxy)phenoxy)benzo[d]thiazol-2-yl)butan-1-ol]
< 1000 | COc1ccncc1C(O)(c1nc2cccc(Br)c2s1)C(C)C (centres unmarked) [1-(7-bromobenzo[d]thiazol-2-yl)-1-(4-methoxypyridin-3-yl)-2-methylpropan-1-ol]
< 1000 | CCCC(O)(c1nc2ccc(OC(F)(F)F)cc2s1)c1cnccc1OCC (centres unmarked) [Example 46, 1-(4-ethoxypyridin-3-yl)-1-(6-(trifluoromethoxy)benzo[d]thiazol-2-yl)butan-1-ol]
< 1000 | CCCOc1ccncc1C(O)(CCC)c1nc2ccc(OC(F)(F)F)cc2s1 (centres unmarked) [Example 51, 1-(4-propoxypyridin-3-yl)-1-(6-(trifluoromethoxy)benzo[d]thiazol-2-yl)butan-1-ol]
< 1000 | CCCC(O)(c1nc2cc3c(cc2s1)OC(F)(F)O3)c1cnccc1OCC (centres unmarked) [Example 52, 1-(2,2-difluoro-[1,3]dioxolo[4′,5′:4,5]benzo[1,2-d]thiazol-6-yl)-1-(4-ethoxypyridin-3-yl)butan-1-ol]
< 1000 | CCCC(O)(c1nc2ccc(C(N)=O)cc2s1)c1cnccc1OCC (centres unmarked) [Example 73, 2-(1-(4-ethoxypyridin-3-yl)-1-hydroxybutyl)benzo[d]thiazole-6-carboxamide]
< 1000 | CCCC(O)(c1nc2cc(Br)c(OC(F)(F)F)cc2s1)c1cnccc1OCC (centres unmarked) [Example 56, 1-(5-bromo-6-(trifluoromethoxy)benzo[d]thiazol-2-yl)-1-(4-ethoxypyridin-3-yl)butan-1-ol]
< 1000 | CCCC(O)(c1nc2cc(C)c(OC(F)(F)F)cc2s1)c1cnccc1OCC (centres unmarked) [Example 60, 1-(4-ethoxypyridin-3-yl)-1-(5-methyl-6-(trifluoromethoxy)benzo[d]thiazol-2-yl)butan-1-ol]
< 1000 | COc1ccncc1C(O)(c1nc2ccccc2s1)C(C)(C)C (centres unmarked) [Example 31, 1-(benzo[d]thiazol-2-yl)-1-(4-methoxypyridin-3-yl)-2,2-dimethylpropan-1-ol]
< 1000 | CCCC(O)(c1nc2ccc([N+](=O)[O-])cc2s1)c1cnccc1OCC (centres unmarked) [Example 40, 1-(4-ethoxypyridin-3-yl)-1-(6-nitrobenzo[d]thiazol-2-yl)butan-1-ol]
< 1000 | CCCC(O)(c1nc2cccc(Br)c2s1)c1cnccc1OC (centres unmarked) [Example 24, 1-(7-bromobenzo[d]thiazol-2-yl)-1-(4-methoxypyridin-3-yl)butan-1-ol]
< 1000 | CCCC(O)(c1nc2cccc(OC)c2s1)c1cnccc1OCC (centres unmarked) [Example 44, 1-(4-ethoxypyridin-3-yl)-1-(7-methoxybenzo[d]thiazol-2-yl)butan-1-ol]

SMILES | IC50 [nM]
CCCC(O)(c1nc2cc(Cl)c(Cl)cc2s1)c1cnccc1OCC (centres unmarked) [Example 50, 1-(5,6-dichlorobenzo[d]thiazol-2-yl)-1-(4-ethoxypyridin-3-yl)butan-1-ol] | < 1000
